pEC50: −log10 of the molar value.
Legend:
Influenza A virus = experiment: Antiviral activity against Influenza A virus A/WSN/33(H1N1) strain infected in MDCK cells assessed as reduction in viral infection incubated for 48 hrs by crystal violet staining based assay; type: functional, organism-based
[1] = Cytotoxicity in dog MDCK cells assessed as reduction in cell viability incubated for 48 hrs by crystal violet staining based assay; type: toxicity, Canis lupus familiaris

Structure (SMILES) | pEC50 (Influenza A virus) | CC50 at 48 h [1]
CCc1ccc2[nH]c(=O)c(CN(Cc3ccc(OCOC)cc3)Cc3ccc(C(C)(C)C)cc3)cc2c1 | 6.00 | > 10 µM
Cc1ccc2[nH]c(=O)c(CN(Cc3cccc(F)c3)Cc3ccc4ccccc4c3)cc2c1 | 5.51 | > 5 µM
Cc1ccc2cc(CN(Cc3ccc(F)cc3)C(=O)c3ccccc3)c(=O)[nH]c2c1 |  | > 33 µM
COc1ccc([C@H](C)N(Cc2ccc(C(C)(C)C)cc2)Cc2cc3ccccc3[nH]c2=O)cc1 |  | 1.8 µM
Cc1ccc2[nH]c(=O)c(CN(Cc3ccc(OCC(=O)O)cc3)Cc3ccc(C(C)(C)C)cc3)cc2c1 | 5.57 | > 10 µM
Cc1ccc2[nH]c(=O)c(CN(Cc3ccc(C(C)(C)C)cc3)[C@H](C)c3ccc(F)cc3)cc2c1 |  | > 5 µM
CC(c1ccc(N(C)C)c(Cl)c1)N(Cc1ccc(C(C)(C)C)cc1)Cc1cc2cc(C3CC3)ccc2[nH]c1=O (stereo unspecified) | 7.05 | > 10 µM
CCOc1ccc(CN(Cc2ccc(C(C)(C)C)cc2)Cc2cc3cc(C)ccc3[nH]c2=O)cc1 | 6.27 | > 10 µM
COc1ccc([C@H](C)N(Cc2ccc(OC(F)(F)F)cc2)Cc2cc3cc(Cl)ccc3[nH]c2=O)cc1 | 5.44 | > 10 µM
C[C@H](c1ccc(OC(F)(F)F)cc1)N(Cc1ccc(C(C)(C)C)cc1)Cc1cc2cc(C3CC3)ccc2[nH]c1=O | 5.70 | 
COc1ccc(CN(Cc2ccc(C(C)(C)C)cc2)Cc2cc3ccccc3[nH]c2=O)cc1 |  | 1.8 µM
Cc1ccc2[nH]c(=O)c(CN(Cc3ccc(F)cc3)Cc3ccc(-c4ccccc4)cc3)cc2c1 |  | > 5 µM
CCc1ccc2[nH]c(=O)c(CN(Cc3ccc(F)cc3)Cc3ccc(C(C)(C)C)cc3)cc2c1 | 6.19 | > 33 µM
CCc1ccc2[nH]c(=O)c(CN(CCCO)Cc3ccc(C(C)(C)C)cc3)cc2c1 |  | > 10 µM
Cc1ccc2[nH]c(=O)c(CN(Cc3ccc(C(C)(C)C)cc3)[C@H](CO)c3ccccc3)cc2c1 |  | > 10 µM
COc1ccc([C@H](C)N(Cc2ccc(C(C)(C)C)cc2)Cc2cc3cc(OC)ccc3[nH]c2=O)cc1 | 6.92 | 4.1 µM
Cc1ccc2cc(CN(Cc3ccc(Cl)cc3)Cc3ccc(C(C)C)cc3)c(=O)[nH]c2c1 | 5.21 | > 33 µM
Cc1ccc2[nH]c(=O)c(CN(Cc3ccc(C(C)(C)C)cc3)Cc3ccc(N(C)C)c(Cl)c3)cc2c1 | 6.66 | > 10 µM
Cc1ccc2cc(CN(Cc3ccc(F)cc3)Cc3ccc(C(F)(F)F)cc3)c(=O)[nH]c2c1 | 5.68 | > 33 µM
CCc1ccc2[nH]c(=O)c(CN(Cc3ccc(C(C)(C)C)cc3)C(C)c3ccc(OC)c(Cl)c3)cc2c1 (stereo unspecified) | 6.77 | > 10 µM
CC(c1ccc(OC(F)(F)F)c(Cl)c1)N(Cc1ccc(C(C)(C)C)cc1)Cc1cc2cc(Br)ccc2[nH]c1=O (stereo unspecified) | 6.55 | > 10 µM
COc1ccc([C@H](C)N(Cc2ccc(C(C)(C)C)cc2)Cc2cc3cc(C4CC4)ccc3[nH]c2=O)cc1 | 6.80 | > 10 µM
Cc1cccc2cc(C(C#N)N(Cc3ccccc3)Cc3ccc(C(C)C)cc3)c(=O)[nH]c12 (stereo unspecified) | 4.80 | > 83 µM
Cc1ccc2cc(CN(Cc3ccc(C(C)(C)C)cc3)Cc3cc(F)cc(F)c3)c(=O)[nH]c2c1 | 5.46 | > 33 µM
CC(C)c1ccc2[nH]c(=O)c(CN(Cc3ccc(F)cc3)Cc3ccc(C(C)(C)C)cc3)cc2c1 | 5.72 | 7.9 µM
CC(C)(C)c1ccc(CN(Cc2ccc(C(F)(F)F)c(Cl)c2)Cc2cc3cc(C4CC4)ccc3[nH]c2=O)cc1 | 6.20 | > 10 µM
Cc1ccc2cc(C(C#N)N(Cc3ccccc3)Cc3ccc(C(C)C)cc3)c(=O)[nH]c2c1 (stereo unspecified) | 5.25 | > 83 µM
Cc1ccc2cc(CN(Cc3ccc(C(C)(C)C)cc3)C3CCCC3)c(=O)[nH]c2c1 |  | > 10 µM

Structure (SMILES) | pEC50 (Influenza A virus) | CC50 at 48 h [1]
CCc1ccc2[nH]c(=O)c(CN(Cc3ccc(F)cc3)Cc3ccc(-c4ccccc4)cc3)cc2c1 |  | > 5 µM
CCc1ccc2[nH]c(=O)c(CN(Cc3ccc(F)cc3)Cc3cccc4ccccc34)cc2c1 |  | > 5 µM
COc1ccc(C(C)N(Cc2ccc(C(C)(C)C)cc2)Cc2cc3cc(C4CC4)ccc3[nH]c2=O)cc1Cl (stereo unspecified) | 7.16 | > 10 µM
CCc1ccc2[nH]c(=O)c(CN(Cc3ccc(C(C)(C)C)cc3)[C@H](C)c3ccc(F)cc3)cc2c1 |  | > 5 µM
Cc1cccc2cc(C(C#N)N(Cc3ccccc3)Cc3ccc(F)cc3)c(=O)[nH]c12 (stereo unspecified) | 4.42 | > 83 µM
COc1ccc2[nH]c(=O)c(CN(Cc3ccc(N(C)C)cc3)Cc3ccc(C(C)(C)C)cc3)cc2c1 | 6.34 | 8.5 µM
Cc1ccc2[nH]c(=O)c(CN(Cc3ccc(SC(F)(F)F)cc3)Cc3ccc(C(C)(C)C)cc3)cc2c1 | 5.89 | > 5 µM
COc1ccc(C(C)N(Cc2ccc(C(C)(C)C)cc2)Cc2cc3cc(C)ccc3[nH]c2=O)cc1Cl (stereo unspecified) | 6.96 | > 10 µM
CCc1ccc2[nH]c(=O)c(CN(Cc3ccc(F)cc3)Cc3ccc4ccccc4c3)cc2c1 | 5.68 | > 5 µM
Cc1ccc2cc(CN(Cc3ccc(C(C)C)cc3)Cc3ccccc3F)c(=O)[nH]c2c1 | 5.74 | > 33 µM
Cc1ccc2cc(CN(Cc3ccc(Cl)cc3)Cc3ccc(Cl)cc3)c(=O)[nH]c2c1 |  | > 33 µM
Cc1ccc2[nH]c(=O)c(CN(Cc3ccc(C#N)cc3)Cc3ccc(C(C)(C)C)cc3)cc2c1 | 6.30 | > 5 µM
CC(c1ccc(N(C)C)c(Cl)c1)N(Cc1ccc(C(C)(C)C)cc1)Cc1cc2cc(Br)ccc2[nH]c1=O (stereo unspecified) | 7.00 | 6.1 µM
Cc1ccc2[nH]c(=O)c(CN(Cc3ccc(OC(F)(F)F)cc3)Cc3ccc(C(C)(C)C)cc3)cc2c1 | 6.31 | > 5 µM
Cc1ccc2cc(CN(Cc3ccc(F)cc3)Cc3ccc(C(C)C)cc3)c(=O)[nH]c2c1 | 5.70 | > 33 µM
COCOc1ccc(CN(Cc2ccc(C(C)(C)C)cc2)Cc2cc3cc(C)ccc3[nH]c2=O)cc1 | 6.42 | 6.4 µM
Cc1ccc2cc(C(N(Cc3ccc(F)cc3)Cc3ccc(C(C)C)cc3)C(F)(F)F)c(=O)[nH]c2c1 (stereo unspecified) |  | > 33 µM
CC(c1ccc(N(C)C)c(Cl)c1)N(Cc1ccc(OC(F)(F)F)cc1)Cc1cc2cc(Br)ccc2[nH]c1=O (stereo unspecified) |  | 4.7 µM
CCCCC(c1cc2ccc(C)cc2[nH]c1=O)N(Cc1ccc(F)cc1)Cc1ccc(C(C)C)cc1 (stereo unspecified) |  | > 33 µM
CCCCOc1ccc(CN(Cc2ccc(C(C)(C)C)cc2)Cc2cc3cc(C)ccc3[nH]c2=O)cc1 |  | > 5 µM
Cc1cccc2cc(CN(Cc3ccc(F)cc3)Cc3ccc(C(C)(C)C)cc3)c(=O)[nH]c12 | 5.74 | 
Cc1ccc2[nH]c(=O)c(CN(Cc3ccc(OCCO)cc3)Cc3ccc(C(C)(C)C)cc3)cc2c1 |  | > 5 µM
Cc1ccc2[nH]c(=O)c(CN(Cc3ccc(C(N)=O)cc3)Cc3ccc(C(C)(C)C)cc3)cc2c1 |  | > 5 µM
Cc1ccc2[nH]c(=O)c(CN(CCCO)Cc3ccc(C(C)(C)C)cc3)cc2c1 |  | > 10 µM
Cc1ccc2cc(CNCc3ccc(F)cc3)c(=O)[nH]c2c1 |  | > 33 µM
CCc1ccc2[nH]c(=O)c(CN(Cc3ccc(C(C)(C)C)cc3)[C@H](CO)c3ccccc3)cc2c1 |  | > 10 µM
CCc1ccc2cc(CN(Cc3ccc(C(C)(C)C)cc3)C3CCCC3)c(=O)[nH]c2c1 |  | > 9 µM

Reference: ChEMBL document CHEMBL5042495, “Lead Optimization of Influenza Virus RNA Polymerase Inhibitors Targeting PA-PB1 Interaction” (J Med Chem, 2022)
